Laboratory results taken from US11618761B2, “Phosphonium ion channel blockers and methods for use” (Nocion Therapeutics, Inc., priority 2019, dated 2023).
Structures can show the parent of a compound that is named as a salt.

Columns and labels:
[1] = PAMPA membrane permeability assay; assay type: in vitro ADME; details: pH 7.4 buffer, GIT lipid, 4 hours incubation, 50 uM
Method: The PAMPA assay (pION, Inc., Woburn Mass.) was used to determine the ability of compounds of the invention to cross an artificial lipid membrane by passive diffusion. Test compounds were dissolved in DMSO (10 mM) and diluted 200-fold in buffer (pION Inc., pH 7.4) to provide 50 uM stock solutions. Buffer (150 μL) was added to a UV blank plate and stock solutions (150 μL) were transferred to a UV reference plate. The blank and reference spectrum were read using a spectrophotometer. Stock solutions (200 μL) were added to the donor plate of the PAMPA sandwich plate and an accept plate painted with GIT lipid (pION Inc, 5 μL) was placed on top. Buffer (200 μL) was added to the acceptor plate and the PAMPA sandwich plate was incubated for 4 hours. Aliquots (150 μL) from the acceptor plate were added to a UV plate and read as acceptor spectrum. Aliquots (150 μL) of the donor solutions were added to a UV analysis plate and read as donor spectrum. The permeability coefficient of test compounds was calculated using PAMPA Explorer™ software (version 3.5.0.4) based on the AUC of the reference plate, the donor plate, and the acceptor plate.

[2] = molecular target: T1, NaV1.7 (Homo sapiens, UniProt Q15858); assay: Whole cell patch clamp, internal block of NaV1.7 current (compound in internal solution); assay type: cell-based; details: compound applied internally, 5 Hz stimulation, read-out: Nav1.7 Intracellular Inhibition; for inhibition at 10 µM: % inhibition at 10 μM test concentration; for inhibition at 3 µM: % inhibition at 3 μM test concentration
T1 construct: expressed in transfected cells; tetracycline-inducible, kept under hygromycin and blasticidin selection
T1 sequence (Q15858 whole entry): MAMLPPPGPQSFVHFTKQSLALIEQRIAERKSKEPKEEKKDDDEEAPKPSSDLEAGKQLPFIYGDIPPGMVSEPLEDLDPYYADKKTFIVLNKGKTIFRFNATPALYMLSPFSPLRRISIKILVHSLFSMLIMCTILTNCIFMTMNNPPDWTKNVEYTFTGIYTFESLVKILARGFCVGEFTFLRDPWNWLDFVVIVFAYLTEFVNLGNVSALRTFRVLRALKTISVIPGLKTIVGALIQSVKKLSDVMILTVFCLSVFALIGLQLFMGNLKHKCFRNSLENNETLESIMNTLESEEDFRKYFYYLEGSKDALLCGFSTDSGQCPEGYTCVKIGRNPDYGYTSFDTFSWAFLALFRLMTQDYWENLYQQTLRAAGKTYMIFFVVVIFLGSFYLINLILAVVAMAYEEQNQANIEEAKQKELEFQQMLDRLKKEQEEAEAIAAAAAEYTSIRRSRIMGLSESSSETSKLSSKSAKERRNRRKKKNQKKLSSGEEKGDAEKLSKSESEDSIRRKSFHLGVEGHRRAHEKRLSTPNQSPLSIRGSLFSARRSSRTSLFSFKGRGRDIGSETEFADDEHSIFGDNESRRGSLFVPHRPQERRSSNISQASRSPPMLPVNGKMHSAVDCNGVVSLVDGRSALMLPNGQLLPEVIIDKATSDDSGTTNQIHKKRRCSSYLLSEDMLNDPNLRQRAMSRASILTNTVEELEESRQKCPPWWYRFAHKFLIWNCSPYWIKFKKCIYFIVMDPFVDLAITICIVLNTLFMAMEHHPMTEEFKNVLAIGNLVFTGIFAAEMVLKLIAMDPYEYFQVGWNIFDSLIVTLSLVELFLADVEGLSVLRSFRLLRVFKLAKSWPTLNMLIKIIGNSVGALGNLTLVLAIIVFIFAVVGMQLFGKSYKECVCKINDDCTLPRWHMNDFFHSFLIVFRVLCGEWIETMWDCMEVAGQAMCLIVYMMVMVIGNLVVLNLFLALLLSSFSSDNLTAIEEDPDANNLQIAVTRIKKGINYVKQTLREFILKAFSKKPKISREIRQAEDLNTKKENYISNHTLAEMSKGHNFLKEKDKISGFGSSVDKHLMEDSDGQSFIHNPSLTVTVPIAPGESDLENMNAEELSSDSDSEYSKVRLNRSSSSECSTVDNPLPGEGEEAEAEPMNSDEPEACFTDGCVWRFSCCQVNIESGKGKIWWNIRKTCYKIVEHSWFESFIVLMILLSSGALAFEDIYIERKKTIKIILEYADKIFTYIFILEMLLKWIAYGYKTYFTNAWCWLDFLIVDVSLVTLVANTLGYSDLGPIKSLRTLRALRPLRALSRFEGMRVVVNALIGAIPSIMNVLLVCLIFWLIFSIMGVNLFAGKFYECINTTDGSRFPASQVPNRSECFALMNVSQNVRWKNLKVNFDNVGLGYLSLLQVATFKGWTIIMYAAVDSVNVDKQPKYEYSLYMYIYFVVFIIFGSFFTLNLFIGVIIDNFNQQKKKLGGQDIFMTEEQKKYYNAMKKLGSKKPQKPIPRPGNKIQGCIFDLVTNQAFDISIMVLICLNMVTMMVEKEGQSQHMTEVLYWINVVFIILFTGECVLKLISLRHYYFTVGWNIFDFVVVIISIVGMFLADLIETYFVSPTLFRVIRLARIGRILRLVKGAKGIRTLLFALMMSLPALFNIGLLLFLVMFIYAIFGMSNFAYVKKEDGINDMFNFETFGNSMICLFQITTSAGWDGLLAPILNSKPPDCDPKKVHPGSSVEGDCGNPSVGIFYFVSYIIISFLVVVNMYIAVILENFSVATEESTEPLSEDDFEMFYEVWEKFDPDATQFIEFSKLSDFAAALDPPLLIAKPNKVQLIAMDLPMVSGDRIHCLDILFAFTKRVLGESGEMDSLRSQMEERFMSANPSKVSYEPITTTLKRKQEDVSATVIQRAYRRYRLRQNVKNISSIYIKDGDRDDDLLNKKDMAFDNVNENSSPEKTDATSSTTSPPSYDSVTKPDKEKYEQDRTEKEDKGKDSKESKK
Method: (§1) NaV1.7 was expressed upon induction with tetracycline. Cells were cultured in DMEM containing 10% dialyzed Fetal Bovine Serum (VWR, Radnor, Pa.), 1% Glutamax (VWR, Radnor, Pa.), 1% Penicillin-Streptomycin (VWR, Radnor, Pa.), 100 mg/L Hygromycin (Thermo Fisher Scientific, Waltham, Mass.) and 5 mg/L Blasticidin (Alfa Aesar, Haverhill, Mass.). Cells were grown and maintained at 37° C. in a humidified environment containing 10% CO2 in air. Cells were detached from the culture flask for passage and harvested using 0.05% Trypsin-EDTA (Thermo Fisher Scientific, Waltham, Mass.). To induce NaV1.7, cells were induced with tetracycline (0.1-1 μg/mL, IBI Scientific, Peosta, Iowa) the day before recording and plated onto 24-well plates. Cells were washed with DPBS (VWR, Radnor, Pa.), trypsinized and then triturated five times in 10 mL of growth media to break apart cell aggregates. For one 24-well plate, 2 mL of cell suspension was mixed with 23 mL of fresh growth media and 0.1-1 μg/mL tetracycline added. 1 ml of mixed media with cells was then added to each well of a 24-well plate, with a 12 mm coverslip already placed in the bottom of the well. Cells were then incubated in 37° C. and 10% CO2 overnight.
The intracellular solution contained the following (in mM) CsCl 135, NaCl 10, EGTA 10, HEPES 10, MgCl2 2, adjusted to pH 7.2 with CsOH. The external solution was a normal Ringer solution containing (in mM) NaCl 155, HEPES 10, glucose 10, KCl 3.5, CaCl2) 1.5, MgCl2 1 adjusted to pH 7.4 with NaOH. CsCl was from Alfa Aesar, Haverhill, Mass. All other chemicals were from Sigma-Aldrich, St. Louis, Mo. In order to test the degree of internal block by test compounds the compounds were dissolved in internal solution at the indicated test concentration. […] In order to test the degree of external block by test compounds the compounds were dissolved in external solution at the indicated test concentration.
18-24 hours after cells were induced with tetracycline, coverslips were placed into a chamber filled with Normal Ringer solution at room temperature and the chamber was placed on a microscope. Pipettes were pulled from borosilicate glass on a P97 puller (Sutter Instrument, Novato, Calif.) and were polished with a MF-830 Microforge (Narishige International USA, Inc, Amityville, N.Y.) to have a resistance of 1.5-2.5 MΩ when filled with CsCl internal solution at room temperature. Healthy cells (those that are round and translucent with no visible blemishes) were chosen for seal formation. A seal was formed between the pipette and the cell, and a brief pulse of suction was used to “break in” and establish the whole-cell configuration. The membrane potential was held at −100 mV before the voltage protocol begins. Only cells with series resistance between 1.5-5 MΩ were retained for analysis. The voltage protocol was as follows: Cells were held at −100 mV for 12 ms followed by a hyperpolarizing step to −105 mV for 12 ms to monitor the leak. Cells were then stepped back to −100 mV for 40 ms. Cells were then depolarized to −20 mV for 10 ms and then returned to −100 mV for 26 ms (the FIGURE).
Once the recording was started, the voltage protocol was run at 30 second intervals for 5 minutes to get a stable baseline. This was followed by four 30-second periods of 5 Hz stimulation of the same voltage protocol separated by 1 minute of rest which was then followed by 0.33 Hz stimulation after the last train. Currents were recorded using PatchMaster software with Heka EPC10 (HEKA Electronics, Lambrecht, Germany). Only cells with inward current amplitudes at −20 mV between 400 pA and 4 nA were accepted. In addition, cells having leak currents greater than 10% of their current amplitudes were discarded.
(§2) The data was plotted using the Patchmaster software (HEKA Electronics, Lambrecht, Germany) and was analyzed by plotting the minimum current during the voltage step to −20 mV (peak inward current) as a function of time. […]

[3] = molecular target: T1, NaV1.7; assay: Whole cell patch clamp, external block of NaV1.7 current (compound in external solution); assay type: cell-based; details: % inhibition at 10 μM test concentration, compound applied externally for 5 minutes; read-out: Nav1.7 Extracellular Inhibition
Method: as §1, with “For one 24-well plate, 2 mL of cell suspension was mixed with 23 mL of fresh growth media and 0.1-1 μg/mL tetracycline added. 1 ml of mixed media with cells was then added to each well of a 24-well plate, with a 12 mm coverslip already placed in the bottom of the well. Cells were then incubated in 37° C. and 10% CO2 overnight.” left out
Once the recording was started, the voltage protocol was run at 30 second intervals for 5 minutes to get a stable baseline. […] Currents were recorded using PatchMaster software with Heka EPC10 (HEKA Electronics, Lambrecht, Germany). […]
as §2

In the case of `CC[P+](CC)(CC)CC(=O)Nc1c(C)csc1C(=O)OC.[Br-]` [Compound 1A, triethyl(2-((2-(methoxycarbonyl)-4-methylthiophen-3-yl)amino)-2-oxoethyl) Phosphonium Bromide], the “PAMPA (10^−6 cm/s)” value [1] is reported as “+ (“+” (<0.1 10^−6 cm/s))” and the inhibition at 10 µM [2] is reported as 40 to 70%.

With `COC(=O)c1scc(C)c1NC(=O)C[P+]1(Cc2ccccc2)CCCCC1.[Br-]` [Compound 8A, 1-benzyl-1-(2-((2-(methoxycarbonyl)-4-methylthiophen-3-yl)amino)-2-oxoethyl)phosphinan-1-ium Bromide] the “PAMPA (10^−6 cm/s)” value [1] was “++ (“++” (0.1-2.0 10^−6 cm/s))” and the inhibition at 3 µM [2] was 70 to 90%.

With `COC(=O)c1scc(C)c1NC(=O)C[P+]1(Cc2ccccc2)CCCCC1` [Compound 8] the inhibition at 10 µM [3] was less than 40%.

With `CCC(C(=O)Nc1c(C)csc1C(=O)OC)[P+]1(Cc2ccccc2)CCCCC1` (stereo not drawn) [Compound 10A, 1-benzyl-1-(1-((2-(methoxycarbonyl)-4-methylthiophen-3-yl)amino)-1-oxobutan-2-yl)phosphinan-1-ium Formate] the “PAMPA (10^−6 cm/s)” value [1] was “+++. (“+++” (2.0-10.010^−6 cm/s))” and the inhibition at 3 µM [2] was greater than 90%.

For `CCCC[P+](CCCC)(CCCC)CC(=O)Nc1c(C)csc1C(=O)OC.[Br-]` [Compound 17A, tributyl(2-((2-(methoxycarbonyl)-4-methylthiophen-3-yl)amino)-2-oxoethyl) Phosphonium Bromide], the “PAMPA (10^−6 cm/s)” value [1] was “+ (“+” (<0.1 10^−6 cm/s))” and the inhibition at 10 µM [2] was 70 to 95%.

`COC(=O)c1scc(C)c1NC(=O)C[P+](c1ccccc1)(c1ccccc1)c1ccccc1` [Compound 19A] showed an inhibition at 10 µM [2] of 70 to 95%.

In the case of `CC[P+](CC)(CC)CC(=O)Nc1c(C)csc1C(=O)OC(C)(C)C.[Br-]` [Compound 21A], the “PAMPA (10^−6 cm/s)” value [1] is reported as “+ (“+” (<0.1 10^−6 cm/s))” and the inhibition at 3 µM [2] is reported as 70 to 90%.
